{
  "source": "paper PMC10247784",
  "about": "“Physiological activation of human and mouse bitter taste receptors by bile acids” (Communications Biology, 2023)",
  "molecular_target": "T1, human TAS2R14 (Homo sapiens, UniProt Q9NYV8)",
  "T1 construct": "expressed in transfected cells; host or cells: HEK293T-Gα16gust44",
  "T1 sequence (Q9NYV8 1-317)": "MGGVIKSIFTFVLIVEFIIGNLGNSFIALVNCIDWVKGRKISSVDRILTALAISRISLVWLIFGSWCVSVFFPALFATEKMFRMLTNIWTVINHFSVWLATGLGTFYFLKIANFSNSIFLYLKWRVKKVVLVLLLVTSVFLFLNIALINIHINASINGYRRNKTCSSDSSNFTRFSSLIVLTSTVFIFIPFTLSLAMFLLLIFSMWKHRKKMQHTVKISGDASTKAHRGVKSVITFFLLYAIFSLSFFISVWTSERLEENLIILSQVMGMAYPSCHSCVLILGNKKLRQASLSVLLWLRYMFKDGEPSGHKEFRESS",
  "assay": "Calcium imaging assay (FLIPR), HEK293T-Gα16gust44 cells transfected with human TAS2R14",
  "type": "cell-based",
  "conditions": "for RLU: TAS2R14 trace",
  "description": "This set of bile acids was chosen because of their commercial availability in high purities, their diversity within the class of bile acids and their previous detection and quantitation in human blood. Stock solutions were prepared in DMSO.\nAs basal growth medium for the HEK293T-Gα16gust44 cell line[17],[59] served Dulbecco’s modified eagle medium (DMEM) (Thermo Fisher Scientific, Darmstadt, Germany) supplemented with 10 % fetal bovine serum (Sigma-Aldrich, Steinheim, Germany), 2 mM L-glutamine (Sigma-Aldrich, Steinheim, Germany), 100 units/ml penicillin (Sigma Aldrich, Steinheim, Germany) and 100 µg/ml streptomycin (Sigma Aldrich, Steinheim, Germany). Growth conditions were 37 °C, 5 % CO2 and saturated air-humidity[60].\nHEK293T-Gα16gust44 cells were seeded on poly-D-lysine (10 µg/ml) coated 96-well plates to reach a confluence of 40-60 % the next day. For transient transfection 150 ng of plasmid DNA containing the receptor of interest and 0.3 µl lipofectamine 2000 (Thermo Fisher Scientific, Darmstadt, Germany) per well were used and transfection took place according to the manual of lipofectamine 2000. […] The empty vector DNA (mock) was transfected as negative control[14],[41].\nCells were loaded using the calcium-sensitive fluorescent dye Fluo-4-AM (Abcam, Cambridge, Great Britain) in the presence of 2.5 mM probenecid (Sigma-Aldrich, Steinheim, Germany) the day after transfection[13],[41]. 1 h after loading, cells were washed with C1 buffer using a BioTek Cell Washer, incubated in the dark for half an hour and washed again. For automated agonist application and measurement of fluorescence changes, a FLIPR^TETRA device (Molecular Devices, San José, United States) was used. Viability of cells was tested by application of 100 nM Somatostatin 14 (Bachem, Bubendorf, Switzerland)[42].\nMeasured data were negative control corrected by subtracting the signal of the mock-transfected cells and exported to Microsoft Excel using the FLIPR software ScreenWorks 4.2. In Microsoft Excel software, standardization of maximum fluorescence intensities to the basal fluorescence and normalization to the buffer-only control was done to calculate the relative fluorescence changes (ΔF/F).\nInitial screening experiments performed in duplicate wells were confirmed by at least one replication and representative traces were selected for display. All dose-response relationships were determined by three independent experiments (biological replicates) performed in duplicates (technical replicates). Threshold concentrations, defined as lowest substance concentrations leading to statistically significant elevated fluorescence changes in receptor-transfected cells compared with empty vector-transfected cells, were determined using SigmaPlot with Student’s t-test to evaluate statistical significance (p < 0.01).",
  "data": [
    {"smiles": "C[C@H](CCC(=O)NCC(=O)O)[C@H]1CC[C@H]2[C@@H]3[C@H](O)C[C@@H]4C[C@H](O)CC[C@]4(C)[C@H]3C[C@H](O)[C@]12C", "note": "[Glycocholic Acid, glycocholic acid]", "values": [
      {"measurement": "RLU", "setting": "Time (s) 88.797 (Chenodeoxycholic Acid 88.781)", "value": 835.93, "unit": "RLU"},
      {"measurement": "RLU", "setting": "Time (s) 90.797 (Chenodeoxycholic Acid 90.781)", "value": 879.758, "unit": "RLU"},
      {"measurement": "RLU", "setting": "Time (s) 92.797 (Chenodeoxycholic Acid 92.781)", "value": 905.014, "unit": "RLU"},
      {"measurement": "RLU", "setting": "Time (s) 94.797 (Chenodeoxycholic Acid 94.781)", "value": 871.313, "unit": "RLU"},
      {"measurement": "RLU", "setting": "Time (s) 96.797 (Chenodeoxycholic Acid 96.781)", "value": 875.012, "unit": "RLU"},
      {"measurement": "RLU", "setting": "Time (s) 98.797 (Chenodeoxycholic Acid 98.781)", "value": 900.527, "unit": "RLU"},
      {"measurement": "RLU", "setting": "Time (s) 100.797 (Chenodeoxycholic Acid 100.781)", "value": 907.622, "unit": "RLU"},
      {"measurement": "RLU", "setting": "Time (s) 102.797 (Chenodeoxycholic Acid 102.781)", "value": 872.83, "unit": "RLU"},
      {"measurement": "RLU", "setting": "Time (s) 104.797 (Chenodeoxycholic Acid 104.781)", "value": 919.127, "unit": "RLU"},
      {"measurement": "RLU", "setting": "Time (s) 106.797 (Chenodeoxycholic Acid 106.781)", "value": 885.988, "unit": "RLU"},
      {"measurement": "RLU", "setting": "Time (s) 108.797 (Chenodeoxycholic Acid 108.781)", "value": 899.974, "unit": "RLU"},
      {"measurement": "RLU", "setting": "Time (s) 110.797 (Chenodeoxycholic Acid 110.781)", "value": 929.16, "unit": "RLU"},
      {"measurement": "RLU", "setting": "Time (s) 112.797 (Chenodeoxycholic Acid 112.781)", "value": 924.683, "unit": "RLU"},
      {"measurement": "RLU", "setting": "Time (s) 114.797 (Chenodeoxycholic Acid 114.781)", "value": 936.987, "unit": "RLU"},
      {"measurement": "RLU", "setting": "Time (s) 116.797 (Chenodeoxycholic Acid 116.781)", "value": 927.195, "unit": "RLU"},
      {"measurement": "RLU", "setting": "Time (s) 118.797 (Chenodeoxycholic Acid 118.781)", "value": 907.689, "unit": "RLU"},
      {"measurement": "RLU", "setting": "Time (s) 120.797 (Chenodeoxycholic Acid 120.781)", "value": 904.35, "unit": "RLU"},
      {"measurement": "RLU", "setting": "Time (s) 122.797 (Chenodeoxycholic Acid 122.781)", "value": 945.812, "unit": "RLU"},
      {"measurement": "RLU", "setting": "Time (s) 124.797 (Chenodeoxycholic Acid 124.781)", "value": 947.759, "unit": "RLU"},
      {"measurement": "RLU", "setting": "Time (s) 126.797 (Chenodeoxycholic Acid 126.781)", "value": 937.139, "unit": "RLU"},
      {"measurement": "RLU", "setting": "Time (s) 128.797 (Chenodeoxycholic Acid 128.781)", "value": 931.219, "unit": "RLU"},
      {"measurement": "RLU", "setting": "Time (s) 130.797 (Chenodeoxycholic Acid 130.781)", "value": 907.598, "unit": "RLU"},
      {"measurement": "RLU", "setting": "Time (s) 132.797 (Chenodeoxycholic Acid 132.781)", "value": 937.794, "unit": "RLU"},
      {"measurement": "RLU", "setting": "Time (s) 134.797 (Chenodeoxycholic Acid 134.781)", "value": 944.802, "unit": "RLU"},
      {"measurement": "RLU", "setting": "Time (s) 136.797 (Chenodeoxycholic Acid 136.781)", "value": 914.908, "unit": "RLU"},
      {"measurement": "RLU", "setting": "Time (s) 137.562 (Taurocholic Acid 137.563, Chenodeoxycholic Acid 137.546)", "value": 923.636, "unit": "RLU"},
      {"measurement": "RLU", "setting": "Time (s) 143.578 (Taurocholic Acid 143.563, Chenodeoxycholic Acid 143.546)", "value": 874.438, "unit": "RLU"},
      {"measurement": "RLU", "setting": "Time (s) 149.578 (Taurocholic Acid 149.563, Chenodeoxycholic Acid 149.546)", "value": 827.247, "unit": "RLU"},
      {"measurement": "RLU", "setting": "Time (s) 155.578 (Taurocholic Acid 155.563, Chenodeoxycholic Acid 155.546)", "value": 796.558, "unit": "RLU"},
      {"measurement": "RLU", "setting": "Time (s) 161.578 (Taurocholic Acid 161.563, Chenodeoxycholic Acid 161.546)", "value": 810.447, "unit": "RLU"},
      {"measurement": "RLU", "setting": "Time (s) 167.578 (Taurocholic Acid 167.563, Chenodeoxycholic Acid 167.546)", "value": 731.625, "unit": "RLU"},
      {"measurement": "RLU", "setting": "Time (s) 173.578 (Taurocholic Acid 173.563, Chenodeoxycholic Acid 173.546)", "value": 735.471, "unit": "RLU"},
      {"measurement": "RLU", "setting": "Time (s) 179.578 (Taurocholic Acid 179.563, Chenodeoxycholic Acid 179.546)", "value": 706.541, "unit": "RLU"},
      {"measurement": "RLU", "setting": "Time (s) 191.578 (Taurocholic Acid 191.563, Chenodeoxycholic Acid 191.546)", "value": 666.973, "unit": "RLU"},
      {"measurement": "RLU", "setting": "Time (s) 197.578 (Taurocholic Acid 197.563, Chenodeoxycholic Acid 197.546)", "value": 650.688, "unit": "RLU"},
      {"measurement": "RLU", "setting": "Time (s) 209.578 (Taurocholic Acid 209.563, Chenodeoxycholic Acid 209.546)", "value": 612.527, "unit": "RLU"},
      {"measurement": "RLU", "setting": "Time (s) 221.578 (Taurocholic Acid 221.563, Chenodeoxycholic Acid 221.546)", "value": 516.97, "unit": "RLU"},
      {"measurement": "RLU", "setting": "Time (s) 233.578 (Taurocholic Acid 233.563, Chenodeoxycholic Acid 233.546)", "value": 445.674, "unit": "RLU"},
      {"measurement": "RLU", "setting": "Time (s) 239.578 (Taurocholic Acid 239.563, Chenodeoxycholic Acid 239.546)", "value": 433.467, "unit": "RLU"},
      {"measurement": "RLU", "setting": "Time (s) 245.578 (Taurocholic Acid 245.563, Chenodeoxycholic Acid 245.546)", "value": 428.616, "unit": "RLU"},
      {"measurement": "RLU", "setting": "Time (s) 293.578 (Taurocholic Acid 293.563, Chenodeoxycholic Acid 293.546)", "value": 228.532, "unit": "RLU"},
      {"measurement": "RLU", "setting": "Time (s) 299.578 (Taurocholic Acid 299.563, Chenodeoxycholic Acid 299.546)", "value": 222.955, "unit": "RLU"},
      {"measurement": "RLU", "setting": "Time (s) 305.578 (Taurocholic Acid 305.563, Chenodeoxycholic Acid 305.546)", "value": 237.423, "unit": "RLU"},
      {"measurement": "RLU", "setting": "Time (s) 311.578 (Taurocholic Acid 311.563, Chenodeoxycholic Acid 311.546)", "value": 201.505, "unit": "RLU"},
      {"measurement": "RLU", "setting": "Time (s) 317.578 (Taurocholic Acid 317.563, Chenodeoxycholic Acid 317.546)", "value": 204.947, "unit": "RLU"},
      {"measurement": "RLU", "setting": "Time (s) 323.578 (Taurocholic Acid 323.563, Chenodeoxycholic Acid 323.546)", "value": 189.257, "unit": "RLU"},
      {"measurement": "RLU", "setting": "Time (s) 329.578 (Taurocholic Acid 329.563, Chenodeoxycholic Acid 329.546)", "value": 164.774, "unit": "RLU"},
      {"measurement": "RLU", "setting": "Time (s) 335.578 (Taurocholic Acid 335.563, Chenodeoxycholic Acid 335.546)", "value": 171.566, "unit": "RLU"},
      {"measurement": "RLU", "setting": "Time (s) 341.578 (Taurocholic Acid 341.563, Chenodeoxycholic Acid 341.546)", "value": 143.607, "unit": "RLU"},
      {"measurement": "RLU", "setting": "Time (s) 347.578 (Taurocholic Acid 347.563, Chenodeoxycholic Acid 347.546)", "value": 131.554, "unit": "RLU"},
      {"measurement": "RLU", "setting": "Time (s) 353.578 (Taurocholic Acid 353.563, Chenodeoxycholic Acid 353.546)", "value": 173.027, "unit": "RLU"},
      {"measurement": "RLU", "setting": "Time (s) 359.578 (Taurocholic Acid 359.563, Chenodeoxycholic Acid 359.546)", "value": 156.135, "unit": "RLU"},
      {"measurement": "Activation threshold concentration TAS2R14", "setting": "lowest concentration with significantly increased fluorescence vs empty vector (p < 0.01)", "value": 100, "unit": "µM"}
    ]}
  ]
}
